Here are results for 2 molecules from US10590143B2, “Herbicidally active (alkynyl-phenyl)-substituted cyclic dione compounds and derivatives thereof” (Syngenta Limited, priority 2013, dated 2020).

Structures are written as SMILES.

What all share (test): Biological Example 2 glasshouse assay for herbicidal activity
What all share (assay type): in vivo

Experiment [1] relates to Echinochloa crus-galli (ECHCG). The settings on record: Echinochloa crus-galli, post-emergence, 360 h, 30 g/ha, 14 or 15 DAA, 0.2% v/v X-77, read-out: percentage phytotoxicity ECHCG. As for the experimental part: (§1) Seeds of a variety of monocotyledonous and dicotyledonous test plants are sown in standard soil in pots. The plants are cultivated for one day (for pre-emergence) or for about 12 days (range=10-13 days) (for post-emergence) under controlled conditions in a glasshouse (warm climate species at 24/18° C., cool climate species at 20/16° C., both at day/night; 16 hours light; 65% humidity).
(§2) An “instant formulation”, known as the “IF50”, containing 50 g/litre (i.e. 5% w/v) of the “technical” (i.e. unformulated) active ingredient is prepared by dissolving the active ingredient in a mixture of organic solvents and emulsifier, details of which are provided in the Table below. This IF50 is then mixed with a small, variable amount of acetone to aid dissolution, before addition of a 0.2% v/v aqueous solution of the adjuvant X-77 (which is a mixture of alkyl aryl polyoxyethylene glycols and free fatty acids in isopropanol, CAS Registry number 11097-66-8), as the aqueous diluent, to form an aqueous spray solution which contains a predetermined concentration of the active ingredient (which varies depending on the application rate of the active ingredient to the plants) and 0.2% v/v of the adjuvant X-77. This aqueous spray solution is then sprayed onto the plants, after one day's cultivation (for pre-emergence) or after about 12 days' cultivation (for post-emergence).
(§3) The test plants are then grown on, in a glasshouse (greenhouse) under controlled conditions (at either 24/18° C. or 20/16° C. (day/night) as mentioned above; 16 hours light; 65% humidity) and are watered twice daily. Either 14 or 15 days after application of the herbicide (14 or 15 DAA) (for post-emergence), or 20 days after application of the herbicide (20 DAA) (for pre-emergence), the test plants are evaluated visually, and an assessed percentage phytotoxicity score is given for each herbicidal application on each plant species (where 100%=total damage to plant; 0%=no damage to plant).
(§4) Some of the typical test plants are as follows: • Cool climate crop plants: Triticum aestivum (TRZAW, winter wheat), Brassica napus (BRSNN, rape, also called oilseed rape or rapeseed), Beta vulgaris (BEAVA, sugarbeet). • Warm climate crop plants: Glycine max (GLXMA, soybean). • Cool climate (“cool season”) grassy monocotyledonous weeds: Alopecurus myosuroides (ALOMY), Avena fatua (AVEFA), Lolium perenne (LOLPE), Poa annua (POAAN), Bromus tectorum (BROTE). • Warm climate (“warm season”) grassy monocotyledonous weeds: Setaria faberi (SETFA), SORVU (Sorghum bicolor (L.) Moench ssp. Bicolor, or Sorghum vulgare Pers.), Digitaria sanguinalis (DIGSA), Echinochloa crus-galli (ECHCG), Brachiaria plantaginea (BRAPL); Zea mays (ZEAMX, corn, maize, e.g. volunteer corn).

Experiment [2] has as its system Glycine max (GLXMA, soybean). The conditions noted are these: post-emergence, 360 h, 30 g/ha, 14 or 15 DAA, 0.2% v/v X-77, read-out: percentage phytotoxicity GLXMA. As for the experimental part:
as §1, §2, §3, §4

Experiment [3] concerns Setaria faberi (SETFA). The settings on record: post-emergence, 360 h, 30 g/ha, 14 or 15 DAA, 0.2% v/v X-77, read-out: percentage phytotoxicity SETFA. As for the experimental part: as §1, §2, §3, §4
For experiment [4], the system named is Triticum aestivum (TRZAW, winter wheat). The settings on record: post-emergence, 360 h, 30 g/ha, 14 or 15 DAA, 0.2% v/v X-77, read-out: percentage phytotoxicity TRZAW. The protocol:
as §1, §2, §3, §4

The test system of experiment [5] is Brassica napus (BRSNN, rape). The settings on record: Brassica napus, 360 h; post-emergence, 30 g/ha, 14 or 15 DAA, 0.2% v/v X-77; read-out: percentage phytotoxicity BRSNN. The protocol: as §1, §2, §3, §4
In experiment [6] the test system is Avena fatua (AVEFA). The settings on record: post-emergence, 360 h, 30 g/ha, 14 or 15 DAA, 0.2% v/v X-77, read-out: percentage phytotoxicity AVEFA. As for the experimental part: as §1, §2, §3, §4
Experiment [7] has as its system Alopecurus myosuroides (ALOMY). The conditions noted are these: post-emergence, 360 h, 30 g/ha, 14 or 15 DAA, 0.2% v/v X-77, read-out: percentage phytotoxicity ALOMY. The protocol: as §1, §2, §3, §4
The subject of experiment [8] is Brachiaria plantaginea (BRAPL). The conditions noted are these: Urochloa plantaginea, post-emergence, 360 h, 30 g/ha, 14 or 15 DAA, 0.2% v/v X-77, read-out: percentage phytotoxicity BRAPL. As for the experimental part:
as §1, §2, §3, §4

For experiment [9], the system named is Digitaria sanguinalis (DIGSA). The settings on record: post-emergence, 360 h, 30 g/ha, 14 or 15 DAA, 0.2% v/v X-77, read-out: percentage phytotoxicity DIGSA. The protocol:
as §1, §2, §3, §4

Experiment [10] concerns Lolium perenne (LOLPE). The conditions noted are these: post-emergence, 30 g/ha, 14 or 15 DAA; for pest or weed control at 30 g/ha: Lolium perenne, 360 h, 0.2% v/v X-77, read-out: percentage phytotoxicity LOLPE. The protocol: as §1, §2, §3, §4
In experiment [11] the test system is SORVU (Sorghum bicolor (L.) Moench ssp. Bicolor, or Sorghum vulgare Pers.). The conditions noted are these: post-emergence, 360 h, 30 g/ha, 14 or 15 DAA, 0.2% v/v X-77, read-out: percentage phytotoxicity SORVU. As for the experimental part:
as §1, §2, §3, §4

Experiment [12] concerns Zea mays (ZEAMX, corn, maize, e.g. volunteer corn). The settings on record: Zea mays, post-emergence, 360 h, 30 g/ha, 14 or 15 DAA, 0.2% v/v X-77, read-out: percentage phytotoxicity ZEAMX. As for the experimental part:
as §1, §2, §3, §4

The test system of experiment [13] is Beta vulgaris (BEAVA, sugarbeet). The settings on record: post-emergence, 360 h, 30 g/ha, 14 or 15 DAA, 0.2% v/v X-77, read-out: percentage phytotoxicity BEAVA. The protocol: as §1, §2, §3, §4

Turning to `Cc1cc(C)c(C2C(=O)C3CCC(C3)C2=O)c(C)c1` (stereo not drawn) [Compound X9, reference compound], the pest or weed control at 30 g/ha in experiment [1] turned out to be 20%; in experiment [3], 70%; in experiment [6], 0%; in [7], 0%; in experiment [8], 70%; in experiment [9], 30%. For the same molecule, in [10], the pest or weed control at 30 g/ha was found to be 0%. Moreover, the plant injury at 30 g/ha in experiment [2], in experiment [4] and in experiment [5] was 0% in each case.

For the molecule `CCc1cc(C)cc(CC)c1C1C(=O)C2CCC(C2)C1=O` (stereo not drawn) [Compound X10, reference compound], the plant injury at 30 g/ha in [2], in [5] and in experiment [13] was 0% each time. In addition, the pest or weed control at 30 g/ha in [3] came to 100%; in experiment [11], 60%; in experiment [7], 80%; in [12] it was 80%; in experiment [8], 80%; in [9], 100%. Also, the pest or weed control at 30 g/ha in experiment [10] stood at 70%. Moreover, in experiment [10] (0.2% v/v X-77), the “percentage phytotoxicity LOLPE” value stood at 70%.
